Results reported in US20220236187A1, “SYSTEM AND METHOD FOR REAL-TIME MULTICOLOR SHORTWAVE INFRARED FLUORESCENCE IMAGING” (HELMHOLTZ ZENTRUM MÜNCHEN - DEUTSCHES FORSCHUNGSZENTRUM FÜR …, priority 2019, published 2022).
Where two headings read alike, the source gives them in different places.

Experiments:
[1] = Excitation-multiplexed SWIR imaging in mice, probe distribution (Example 9); assay type: in vivo; details: 80 minutes after i.p. 10 micelles and i.v. 3 micelles and ICG; top view
Description: To perform excitation multiplexing in the SWIR, a custom SWIR imaging configuration with three lasers and an InGaAs detector was built (FIG. 13B). With laser lines at 785 nm, 980 nm, and 1064 nm, tailored excitation could uniquely excite three fluorophores. Emission is detected in a color-blind fashion using identical filters and settings in the SWIR, providing high-resolution images. To enable this process to occur in real-time, we constructed an electronic triggering system which is coupled to both the camera and laser excitation sources. […]
Physiological properties such as heart-rate, respiratory rate, thermoregulation, metabolism, and the function of the central nervous system, are highly impacted by anesthesia. […] Due to frame rates which are faster than macroscopic movements in animals, the heart rate and respiratory rate in awake animals can be quantified. […] The method allows physiology to be monitored with minimal perturbation of the animal's usual environment. […] The real-time collection can be visualized by observing close time-points in which a continuous movement is monitored without visual aberrations (FIG. 16A). In addition to assessing natural physiology, these tools foreshadow more complex experiments in which the location of multiple probes could be monitored over long periods of time, non-invasively and without the need for anesthesia. […]

[2] = Two-color SWIR lymphatic imaging of a narcotized mouse (Example 2, Demonstration III); assay type: in vivo; details: injected intradermally into footpads and base of tail; after 30 min, 40 min
Description: The FIGS. 9A, 9B and 9C show merged frames representing the lymphatic system of a narcotized mouse in two-color real-time acquisition. With detector exposure time of 20 ms, a frame rate of 21 fps is achieved with the developed system. […] Then, Julo 7 micelles have been injected intravenously. The lymphatic functional imaging is later enhanced by the assignment of two distinct colors.
Light Source (785 nm laser & 1064 nm laser sequentially triggered, pulse length=21 ms)→Collimator→Mirror→1100 nm Short-pass Filter→Engineered Diffuser→Sample. The arrows represent the light path. Accordingly, the light path has been set up as follows: from Light Source (785 nm laser & 1064 nm laser sequentially triggered, pulse length=21 ms) to Collimator to Mirror to 1100 nm Short-pass Filter to Engineered Diffuser to Sample.
Sample→3xf=500 mm C-Coated lenses→Silver Mirror→1000 nm Long-pass Filter→2xf=200 mm C-coated lenses→InGaAs Detector. The arrows represent the light path. Accordingly, the light path has been set up as follows: from Sample to 3xf=500 mm C-Coated lenses to Silver Mirror to 1000 nm Long-pass Filter to 2xf=200 mm C-coated lenses to InGaAs Detector.
Sample: ICG (aqueous, 13 nmol intradermally [footpads and base of tail]) and Julo7 (micelles, 70 nmol intravenously).

[3] = Brightness comparison in organic solvent in the excitation-multiplexed SWIR imaging configuration; assay type: physicochemical; details: 0.25 μM, 785/892/968 nm excitation, 1000 nm LP
Description: While photophysical characterization can be essential for understanding chromophore properties, when moving to an in vivo system, there are many additional parameters that might contribute to a dye's performance, including delivery strategy, interaction with biological tissues, and the excitation and detection parameters of the imaging configuration. To begin to understand the translation to in vivo experiments, an excitation-multiplexed SWIR imaging configuration was used to compare emission of the fluorophores when excited at relevant wavelengths. The imaging set-up includes excitation lasers that correspond to each channel (e.g., i-iv, FIG. 17a) (785, 892, and 968, 1065 nm) with irradiation scaled to the approved values, as outlined by the International Commission on Non-Ionizing Radiation Protection (ICNIRP) guidelines. The guidelines indicate that within the spectral region of interest (˜785 nm-1065 nm) higher photon doses are tolerated as the wavelength is increased. […] The excitation lasers are diffused and delivered uniformly to the biological sample. […]
To compare brightness of the chromenylium dyes in vitro, dyes 5, 6, 9 and 10 were dissolved in organic solvent (DCM) at 0.25 μM, and measured the emission, with 1000 nm longpass (LP) filtering on an InGaAs camera upon sequential excitation with 785, 892, and 968 nm lasers. […]

[4] = Brightness comparison of micelle-formulated dyes and ICG in water, fetal bovine serum and sheep blood; assay type: physicochemical; details: dyes in micelles, ICG free
Description: (§1) FIG. 21: Brightness comparisons in imaging configuration. a-c) Images upon 785 (33 mWcm^−2), 892 (54 mWcm^−2), and 968 (77 mWcm^−2) nm ex. and LP1000 nm detection (variable exposure time (ET) and frame rate) of capillaries containing equal moles of dyes 4-6, 9, 10 (lipid formulations) and benchmark dyes ICG (free) and MeOFlav7 (abbreviated MF7) (lipid formulation) when dissolved in water (a), fetal bovine serum (FBS) (b), or sheep blood (c). […] (e) and after injection of JuloChrom5 (10) (50 nmol) upon 982 nm (104 mWcm^−2) ex. (f). Collect: LP1000 nm, 2.0 ms ET, 150 fps (for 2-channel collection, see SI for images from all channels).
Next, to more closely approximate in vivo performance, each chromenylium or flavylium dye were formulated into water-soluble PEG-phospholipid micelles, a biocompatible nanomaterial for delivery. Brightness of solutions with equal dye concentration (flavylium and chromenylium dyes in micelles; ICG) were evaluated when dispersed in water (e.g., FIG. 20a), fetal bovine serum (FBS) (e.g., FIG. 20b), and sheep blood (e.g., FIG. 20c).
Results changed drastically compared to those in the organic solvent experiment, likely due to variable amounts of aggregation or interactions within the micelles and/or biological media. […]

[5] = In vivo brightness comparison of JuloChrom5 (10) and ICG in a single mouse; set-up: species or system mice; details: compared to the PEG-coated micelles
Description: as §1
To most closely assess the brightness performance for SWIR imaging, an in vivo comparative experiment between the highest performing chromenylium dye, JuloChrom5 (10) and ICG was designed. To note, while many SWIR imaging agents have been compared to the benchmark dye, ICG, these comparisons are often difficult due to the diverse photophysical and biological properties of different emitters. In this case, the in vivo comparison is complicated by differing biodistribution properties of the two dyes. […] Normalizing each acquisition to the injection start time, the signal over time over the whole mouse (yellow), a section of the vasculature (red), and the liver (black) were quantified. […]

[6] = stated as established property; cited from earlier work
[7] = value used as reference for relative measurements; cited from earlier work
[8] = value used as reference for relative measurements; cited from earlier work; remark: listed apart in the source

Row | location of probe in awake mouse [1] | ranking of SWIR emission per excitation channel [3] | change of brightness in FBS and blood compared to water [4] | hepatic clearance time [5] | Structure (SMILES) | conduction through the lymphatic vessels [2] | SWIR brightness in water, FBS and blood ([4]; equal dye concentration) | clearance of ICG [6] | ΦF of reference standard IR-26 [7] [%] | ΦF of reference standard IR-26 [8] [%]
1 | exclusively in the liver | best performers in channels i and ii | increase in brightness | faster hepatic clearance time | CC1(C)C(/C=C/C=C/C=C/C=C2\N(CCCCS(=O)(=O)O)c3ccc4ccccc4c3C2(C)C)=[N+](CCCCS(=O)(=O)[O-])c2ccc3ccccc3c21 [ICG, indocyanine green] | efficiently conducted through the lymphatic vessels | brightest SWIR emitter upon 785 nm excitation in both FBS and blood | clears efficiently and exclusively from the liver |  | 
2 |  |  |  |  | ClC1=C(/C=C/c2cc(-c3ccccc3)[s+]c3ccccc23)CCC/C1=C\C=C1/C=C(c2ccccc2)Sc2ccccc21.[O-][Cl+3]([O-])([O-])[O-] [IR-26] |  |  |  | 0.05 | 0.05
